“Also recorded” adds a separate entry of the source. Like-named read-outs stand apart in the source and are kept apart here.
Columns and labels:
[1] = tested on: mitochondrial DNA (COXII gene) in HepG2 cells; assay: Mitochondrial toxicity assay in HepG2 cells: mitochondrial DNA; type: cell-based; conditions: for IC50: read-out: IC50 MtDNA
Source text: (§1) A real-time PCR assay to accurately quantify mitochondrial DNA content has been developed (see Stuyver L J, Lostia S, Adams M, Mathew J S, Pai B S, Grier J, Tharnish P M, Choi Y, Chong Y, Choo H, Chu C K, Otto M J, Schinazi R F. Antiviral activities and cellular toxicities of modified 2′,3′-dideoxy-2′,3′-didehydrocytidine analogs. Antimicrob. Agents Chemother. 2002; 46: 3854-60). This assay was used in all studies described in this application that determine the effect of compounds on mitochondrial DNA content. In this assay, low-passage-number HepG2 cells were seeded at 5,000 cells/well in collagen-coated 96-well plates. Test compounds were added to the medium to obtain final concentrations of 0 μM, 0.1 μM, 10 μM and 100 μM. On culture day 7, cellular nucleic acids were prepared by using commercially available columns (RNeasy 96 kit; Qiagen). […] The mitochondrial cytochrome c oxidase subunit II (COXII) gene and the β-actin or rRNA gene were amplified from 5 μl of the eluted nucleic acids using a multiplex Q-PCR protocol with suitable primers and probes for both target and reference amplifications. For COXII the following sense, probe and antisense primers were used, respectively: 5′-TGCCCGCCATCATCCTA-3′, 5′-tetrachloro-6-carboxyfluorescein-[…]-TAMRA-3′ and 5′-[…]-3′. For exon 3 of the β-actin gene (GenBank accession number E01094) the sense, probe, and antisense primers are 5′-GCGCGGCTACAGCTTCA-3′, 5′-6-[…]-3′ and 5′-[…]-3′, respectively. The primers and probes for the rRNA gene are commercially available from Applied Biosystems. Since equal amplification efficiencies are obtained for all genes, the comparative CT method was used to investigate potential inhibition of mitochondrial DNA synthesis. The comparative CT method uses arithmetic formulas in which the amount of target (COXII gene) is normalized to the amount of an endogenous reference (the β-actin or rRNA gene) and is relative to a calibrator (a control with no drug at day 7). The arithmetic formula for this approach is given by 2−ΔΔCT, where ΔΔCT is (CT for average target test sample CT for target control)−(CT for average reference test−CT for reference control) (see Johnson M R, K Wang, J B Smith, M J Heslin, R B Diasio. Quantitation of dihydropyrimidine dehydrogenase expression by real-time reverse transcription polymerase chain reaction. Anal. Biochem. 2000; 278:175-184). A decrease in mitochondrial DNA content in cells grown in the presence of drug indicated mitochondrial toxicity.
(§2) The effect of compounds 7 and 9 on the levels of mitochondrial and nuclear DNA, and lactic acid production was evaluated in HepG2 cells (14-day assay), and the data is tabulated below in Table 2: […]

[2] = tested on: nuclear DNA in HepG2 cells; assay: Mitochondrial toxicity assay in HepG2 cells: nuclear DNA; type: cell-based
Source text: as §1, §2

HepG2 cells = assay: Lactic acid production in HepG2 cells; type: cell-based; conditions: 14-day assay, 10 μM
Procedure: To measure the effects of the compounds on lactic acid production, HepG2 cells from a stock culture were diluted and plated in 12-well culture plates at 2.5×10^4 cells per well. Various concentrations (0 μM, 0.1 μM, 1 μM, 10 μM and 100 μM) of compound were added, and the cultures were incubated at 37° C. in a humidified 5% CO2 atmosphere for 4 days. At day 4, the number of cells in each well was determined and the culture medium collected. The culture medium was then filtered, and the lactic acid content in the medium was determined using a colorimetric lactic acid assay (Sigma-Aldrich). Since lactic acid product can be considered a marker for impaired mitochondrial function, elevated levels of lactic acid production detected in cells grown in the presence of test compounds would indicate a drug-induced cytotoxic effect.
as §2

wild type HBV = assay: Anti-HBV assay in AD-38 cell line; type: cell-based; conditions: Hepatitis B virus, AD-38 cells, HBV in culture supernatant; for EC50: read-out: Anti-HBV activity EC50
Procedure: The anti-HBV activity of the compounds was determined by treating the AD-38 cell line carrying wild type HBV under the control of tetracycline (see Ladner S. K., Otto M. J., Barker C. S., Zaifert K., Wang G. H., Guo J. T., Seeger C. & King R. W. Antimicrob. Agents Chemother. 1997, 41, 1715-20). Removal of tetracycline from the medium [Tet (−)] results in the production of HBV. The levels of HBV in the culture supernatant fluids from cells treated with the compounds were compared with that of the untreated controls. Control cultures with tetracycline [Tet (+)] were also maintained to determine the basal levels of HBV expression. 3TC was included as positive control.
The median effective concentrations (EC50) ranges of several of the compounds described herein against HBV are shown in Table 3: […]

[3] = Cellular toxicity assay in human PBM cells; type: cell-based; conditions: human, human PBM cells, read-out: Cytotoxicity
Procedure: (§3) The toxicity of the compounds was assessed in Vero, human PBM, CEM (human lymphoblastoid), MT-2, and HepG2 cells, as described previously (see Schinazi R. F., Sommadossi J.-P., Saalmann V., Cannon D. L., Xie M.-Y., Hart G. C., Smith G. A. & Hahn E. F. Antimicrob. Agents Chemother. 1990, 34, 1061-67). Cycloheximide was included as positive cytotoxic control, and untreated cells exposed to solvent were included as negative controls. The cytotoxicity IC50 was obtained from the concentration-response curve using the median effective method described previously (see Chou T.-C. & Talalay P. Adv. Enzyme Regul. 1984, 22, 27-55; Belen'kii M. S. & Schinazi R. F. Antiviral Res. 1994, 25, 1-11).

human PBM = assay: Cellular toxicity assay in human PBM cells; type: cell-based; conditions: read-out: Cytotoxicity
Procedure: as §3

[4] = Cellular toxicity assay in Vero cells; type: cell-based; conditions: African green monkey, read-out: Cytotoxicity
Procedure: as §3

Vero = assay: Cellular toxicity assay in Vero cells; type: cell-based; conditions: read-out: Cytotoxicity
Procedure: as §3

[5] = Cellular toxicity assay in HepG2 cells; type: cell-based; conditions: human, read-out: Cytotoxicity
Procedure: as §3

HBV e antigen (HBeAg) = assay: HBeAg ELISA in HepAD38 cells (cccDNA-dependent marker); type: cell-based
Procedure: Production of secreted HBeAg is predominantly cccDNA-dependent in HepAD38 cells and therefore can serve as a surrogate marker for cccDNA (Ladner, S. K., Otto, M. J., Barker, C. S., Zaifert, K., Wang, G. H., Guo, J. T., Seeger, C., King, R. W. Antimicrob Agents Chemother 1997, 41, 1715-1720; Zhou T, Guo H, Guo J T, Cuconati A, Mehta A, Block T M. Antiviral Res. 2006; 72 (2): 116-24.). The effect on the levels of cccDNA formation was assessed using a cell-based assay that measures HBV e antigen (HBeAg) as a cccDNA-dependent marker in the HepAD38 system. HepAD38 cells were seeded at 50,000 cells/well in collagen-coated 96-well plates with DMEM/F12 medium (Life Technologies) supplemented with 10% heat-inactivated fetal bovine serum. Cells were treated with 0.3 μg/ml tetracycline as needed. Test compounds and controls were added to cells to a final concentration of 10 μM or in a dose response manner ranging from 0.001 to 10 μM. Medium and test compounds were replenished every 5 days in culture. Supernatants were harvested at day-14, clarified by centrifugation at 5000 rpm for 5 min, and stored at −70° C. until use. ELISA—Culture medium was diluted 1:15 in DMEM/F12 and the levels of HBeAg secreted in the culture medium were measured by using HBeAg ELISA kit (BioChain Institute Inc. Hayward, Calif.) according to the manufacturer's protocol. The concentration of compound that reduced levels of secreted HBeAg by 50% (EC50) was determined by linear regression.

HBV Cp149 = biological target: T1, HBV Cp149 (Hepatitis B virus genotype D subtype adw, UniProt P03147); assay: Capsid formation assay, electron micrographs; type: biochemical; conditions: 25 μM compound
T1 construct: hepatitis B virus core C-terminally truncated protein (HBV Cp149); made in house
T1 sequence (P03147 1-149): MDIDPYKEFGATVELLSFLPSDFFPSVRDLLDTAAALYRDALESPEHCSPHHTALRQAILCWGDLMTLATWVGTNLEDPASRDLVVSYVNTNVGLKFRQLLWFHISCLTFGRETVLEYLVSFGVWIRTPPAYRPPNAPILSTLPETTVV
Procedure: In the absence of compounds which disrupt capsid formation, hepatitis B virus core C-terminally truncated protein (HBV Cp149, protein isolated by reported methods [Zlotnick, A et al; Biochem 1996, 35, 7412-7421] normally assembles into an HBV Cp149 capsid. The purpose of this example was to determine whether putative active agents would disrupt capsid formation, and thus be active as anti-HBV agents. Putative active agents were incubated at a concentration of 25 μM for 1 h at 4° C. with HBV Cp149 at a concentration of 10 μM. Capsid assembly was then promoted by adding 300 mM NaCl, and storing the mixture overnight at 4°. Negative-stain electron micrographs were collected using a JEOL JEM-1400 120 kV electron microscope using uranyl acetate as a contrast agent.

HBV Cp149 capsids = biological target: T2, HBV Cp149 capsids (Hepatitis B virus genotype D subtype adw, UniProt P03147); assay: Disruption of already-formed capsids, electron micrographs; type: biochemical; conditions: 25 μM compound, overnight at 4°, FIG. 2-4
T2 construct: hepatitis B virus core C-terminally truncated protein (HBV Cp149); made in house
T2 sequence (P03147 1-149): as above
Procedure: The next question was whether these compounds could disrupt already-formed capsids. Accordingly, the capsids were formed as discussed above (incubation of isolated HBV Cp149 with 300 mM NaCl, stored overnight at 4°). Then, the capsids were incubated with the putative compound (overnight at 4°), and electron micrographs were then taken.

[6] = HepG2 cells, 14-day assay, 10 μM

Nc1ccn([C@@H]2CS[C@H](CO)O2)c(=O)n1 [Compound 3TC, lamivudine, reference compound]
MtDNA (% of control) [1, 6]: 130 (85.7-196) % of control
inhibition at 10 µM ([1]; Homo sapiens, HepG2, 336 h, read-out: % inhibition MtDNA): 8.8%
IC50 ([1]; Homo sapiens, HepG2, 336 h): > 10 µM
IC50 ([2]; Homo sapiens, 336 h, HepG2 cells, 14-day assay): > 10 µM
inhibition at 10 µM ([2]; Homo sapiens, HepG2, 336 h, read-out: % inhibition nDNA): 29.6%
Lactic acid production (% of control) (HepG2 cells): 94 ± 20.8 % of control
EC50 (wild type HBV): 0.1 to 0.9 µM
EC90 (wild type HBV; read-out: Anti-HBV activity EC90): 1 to 9 µM

O=C(Nc1ccc(F)c(F)c1)c1cc(S(=O)(=O)NCc2cn(C3CC3)nn2)ccc1F [Compound 13, 5-(N-((1-Cyclopropyl-1H-1,2,3-triazol-4-yl)methyl)sulfamoyl)-N-(3,4-difluorophenyl)-2-fluorobenzamide]
CC50 [3]: > 100 µM
CC50 (human PBM): 64.8 µM
CC50 [4]: 55.6 µM
CC50 (Vero): 66 µM
CC50 [5]: > 100 µM
EC50 (wild type HBV): 0.1 to 0.9 µM
Anti-HBeAg activity, percentage in brackets under EC50 (HBV e antigen (HBeAg); HepAD38 cells, day 14, concentration not printed in the table (method: 10 μM)): (86%)
EC50 (HBV e antigen (HBeAg); Hepatitis B virus, HePAD38, 336 h, read-out: Anti-HBeAg activity EC50): < 10 µM

CCOC(=O)C1=C(CN2CCOCC2)NC(c2nccs2)=NC1c1ccc(F)cc1Br (stereo not shown) [GLS4, Morphothiadine mesilate]
Effect on capsid formation (HBV Cp149; 10 μM HBV Cp149, 300 mM NaCl, FIG. 1): misassembled hollow spheres; also recorded: capsid formation was disrupted
Size of the hollow spheres formed (HBV Cp149; 10 μM HBV Cp149, vehicle approximately 40 nm): 80-100 nm
Effect on already-formed capsids (HBV Cp149 capsids): misassembled hollow spheres; also recorded: the capsids were disrupted

Nc1ccn([C@H]2CC[C@@H](CO)O2)c(=O)n1 [ddC, reference compound]
MtDNA (% of control) [1]: 5.3 (5.0-5.8) % of control
% inhibition MtDNA [1, 6]: 97.4%
IC50 ([1]; HepG2 cells, 14-day assay): < 10 µM
IC50 ([2]; HepG2 cells, 14-day assay): < 10 µM
% inhibition nDNA [2, 6]: 52.4%
Lactic acid production (% of control) (HepG2 cells): 196 ± 73.0 % of control

Reference: US10752584B2 (EMORY UNIVERSITY, priority 2016, dated 2020)
